Patent publication US20260226067A1, “MODULATORS OF TRPML, THEIR COMPOSITIONS AND METHODS OF USE” (Caraway Therapuetics, Inc., priority 2023, published 2026)

Assays:
Format in all cases: cell-based
human TRPML1 = human TRPML1 (Homo sapiens, UniProt Q9GZU1); experiment: Fluorescent TRPML1 assay (Fluo4-AM calcium fluorescence); conditions: HEK-293 Trex cells expressing hTRPML1, Fluo4-AM fluorescence; read-out: Human TRPML 1 EC50
Method: (§1) HEK-293 Trex cells were stably transfected with a construct consisting of the human coding sequence for TRPML1 cloned into the tet-inducible plasmid pCDNA5 T/O. Mutations were introduced into the TRPML1 sequence to facilitate expression on the cell surface (Silvia Vergarajauregui, Rosa Puertollano Traffic. 2006 March; 7(3): 337-353). Briefly, the cells are cultured in 150 mm round tissue culture dishes containing 20 mL of media. The day before the assay the cells are rinsed with DPBS-Ca-Mg and then treated briefly with Trypsin-EDTA. The Trypsin-EDTA is diluted with growth media, and cells are counted. 38×10^6 cells are re-plated into 150 mm round tissue culture dishes in media containing 0.5 ug/mL doxycycline to induce expression of hTRPML1.
(§2) The day of the experiment cells are lifted from the plates as above and collected by centrifugation. The cells are then suspended in dye loading buffer consisting of Ringer's solution supplemented with 0.1% Pluronic Acid and 1 micromolar Fluo4-AM dye. Cells are loaded for ~60 minutes in the dark with occasional mixing. The cells are collected by centrifugation, the loading media aspirated, and the cells resuspended in 25 mL Ringer's solution and incubated ~60 minutes in the dark. The cells are again collected by centrifugation, rinsed in Ringer's Solution and resuspended to 0.2×10^6 cells/mL in modified Ringer's solution containing 10 mM calcium.
(§3) Compounds are dissolved to a concentration of 10 millimolar with DMSO. Compound plates are created by dispensing compounds into 384 well black wall clear bottom plates (Greiner 781091). Positive and negative controls are included on each plate. Typically, different amounts of each compound are tested ranging from 100 nanoMoles (20 micromolar final concentration) decreasing in half-log steps to 31 picoMoles (6 nanomolar final concentration). Each concentration is typically tested in triplicate.
(§4) 50 microliters of dye-loaded cells are dispensed into each well of the compound assay plate created above. The fluorescence in each well is then determined with an excitation wavelength of 480 nm and an emission wavelength of 540 nm using either a Molecular Devices SpectraMax multimode plate reader or a Hamamatsu FDSS/uCell plate imager.
(§5) The resulting fluorescence for each well is exported as an ascii file and loaded into our LIMS for analysis. The percent activity of each compound at each concentration is determined by comparison to the positive and negative control wells included in each plate.
(§6) EC50 values were calculated using a non-linear regression of Prism. In the table, “A” indicates an EC50 of less than 100 nM, “B” indicates an EC50 range from 100 nM to 500 nM; “C” indicates an EC50 range from 500 nM to 2 μM; and “D” indicates an EC50 greater than 2 μM.

Human TRPML2 = biological target: T1, Human TRPML2 (Homo sapiens, UniProt Q8IZK6); experiment: Fluorescent TRPML2 assay (as for TRPML1); conditions: as TRPML1 assay with TRPML2 subtype; read-out: Human TRPML 2 EC50
T1 construct: expressed in transfected cells
T1 sequence (Q8IZK6 1-566): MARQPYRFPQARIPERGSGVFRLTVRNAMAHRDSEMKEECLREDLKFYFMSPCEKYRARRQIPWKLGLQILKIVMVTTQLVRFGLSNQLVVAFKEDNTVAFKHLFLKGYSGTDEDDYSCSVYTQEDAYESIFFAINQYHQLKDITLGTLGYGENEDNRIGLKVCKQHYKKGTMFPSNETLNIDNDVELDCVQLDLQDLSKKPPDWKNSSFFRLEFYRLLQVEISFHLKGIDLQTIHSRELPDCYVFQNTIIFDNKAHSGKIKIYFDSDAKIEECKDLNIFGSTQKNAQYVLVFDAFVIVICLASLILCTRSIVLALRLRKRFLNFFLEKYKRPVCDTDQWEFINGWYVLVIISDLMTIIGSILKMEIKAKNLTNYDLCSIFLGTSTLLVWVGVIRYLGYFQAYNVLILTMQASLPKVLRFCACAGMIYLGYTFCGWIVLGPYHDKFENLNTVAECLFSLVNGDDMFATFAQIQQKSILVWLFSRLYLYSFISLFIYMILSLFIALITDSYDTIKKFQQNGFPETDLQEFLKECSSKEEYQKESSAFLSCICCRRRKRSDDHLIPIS
Method: as §1, §2, §3, §4, §5
(§7) Assays for TRPML2 and TRPML3 were performed as above for TRPML1, by substituting the appropriate TRPML2 or TRPML3 subtype for the TRPML1.
as §6

Human TRPML3 = biological target: T2, Human TRPML3 (Homo sapiens, UniProt Q8TDD5); experiment: Fluorescent TRPML3 assay (as for TRPML1); conditions: as TRPML1 assay with TRPML3 subtype; read-out: Human TRPML 3 EC50
T2 construct: expressed in transfected cells
T2 sequence (Q8TDD5 1-553): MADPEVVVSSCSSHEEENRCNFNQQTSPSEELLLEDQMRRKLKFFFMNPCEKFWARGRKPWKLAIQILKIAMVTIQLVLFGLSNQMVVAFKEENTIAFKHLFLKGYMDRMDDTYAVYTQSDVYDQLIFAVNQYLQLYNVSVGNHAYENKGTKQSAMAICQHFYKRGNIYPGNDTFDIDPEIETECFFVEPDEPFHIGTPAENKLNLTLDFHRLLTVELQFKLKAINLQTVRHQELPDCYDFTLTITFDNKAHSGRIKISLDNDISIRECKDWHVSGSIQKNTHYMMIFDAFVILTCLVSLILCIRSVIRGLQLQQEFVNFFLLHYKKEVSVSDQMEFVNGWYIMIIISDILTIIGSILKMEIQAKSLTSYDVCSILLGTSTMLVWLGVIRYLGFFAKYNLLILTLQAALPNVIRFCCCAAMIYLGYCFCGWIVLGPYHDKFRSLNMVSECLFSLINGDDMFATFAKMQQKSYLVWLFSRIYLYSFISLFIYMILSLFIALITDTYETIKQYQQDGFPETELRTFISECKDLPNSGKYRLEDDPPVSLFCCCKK
Method: as §1, §2, §3, §4, §5, §7, §6

Chain of human TRPML1 (Q9GZU1 whole entry L15A/L16A/L577A/L578A, form open): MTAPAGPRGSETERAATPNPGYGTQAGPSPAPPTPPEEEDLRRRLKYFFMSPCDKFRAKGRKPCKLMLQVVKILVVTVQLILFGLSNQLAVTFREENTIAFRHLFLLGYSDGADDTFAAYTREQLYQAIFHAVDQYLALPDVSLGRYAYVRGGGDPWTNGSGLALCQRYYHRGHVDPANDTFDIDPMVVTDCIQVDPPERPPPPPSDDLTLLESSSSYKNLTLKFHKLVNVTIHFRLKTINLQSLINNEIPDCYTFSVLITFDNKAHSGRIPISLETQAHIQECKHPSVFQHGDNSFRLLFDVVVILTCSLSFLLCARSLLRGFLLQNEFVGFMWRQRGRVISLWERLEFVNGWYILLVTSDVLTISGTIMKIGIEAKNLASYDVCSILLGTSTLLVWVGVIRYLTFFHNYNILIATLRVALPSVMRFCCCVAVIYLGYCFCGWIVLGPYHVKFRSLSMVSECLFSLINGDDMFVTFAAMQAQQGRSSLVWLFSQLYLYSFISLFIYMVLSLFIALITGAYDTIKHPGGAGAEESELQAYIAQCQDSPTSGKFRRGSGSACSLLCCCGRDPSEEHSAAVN

Row | EC50 (human TRPML1) [nM] | EC50 (Human TRPML2) [nM] | EC50 (Human TRPML3) [nM] | Structure (SMILES)
1 | < 100 | > 2000 | 100 to 500 | C[C@@H]1CN(c2ncnc3c2c(C2CC2)cn3-c2cc(C#N)ccn2)[C@@H](C)CN1C(=O)c1ccccc1 [Compound 102, 2-(4-((2S,5R)-4-benzoyl-2,5-dimethylpiperazin-1-yl)-5-cyclopropyl-7H-pyrrolo[2,3-d]pyrimidin-7-yl)isonicotinonitrile]
2 | < 100 | 100 to 500 | < 100 | C[C@@H]1CN(c2ncnc3c2c(-c2ccccc2F)cn3-c2cc(C#N)ccn2)[C@@H](C)CN1C(=O)c1ccccc1 [Compound 109, 2-(4-((2S,5R)-4-benzoyl-2,5-dimethylpiperazin-1-yl)-5-(2-fluorophenyl)-7H-pyrrolo[2,3-d]pyrimidin-7-yl)isonicotinonitrile]
3 | < 100 | 100 to 500 | < 100 | COc1ccccc1C(=O)N1C[C@H](C)N(c2ncnc3c2c(-c2ccccc2F)cn3-c2cc(C#N)ccn2)C[C@H]1C [Compound 119, 2-(5-(2-fluorophenyl)-4-((2S,5R)-4-(2-methoxybenzoyl)-2,5-dimethylpiperazin-1-yl)-7H-pyrrolo[2,3-d]pyrimidin-7-yl)isonicotinonitrile]
4 | 100 to 500 | – | 500 to 2000 | C[C@@H]1CN(c2ncnc3c2c(-c2ccccn2)cn3-c2cc(C#N)ccn2)[C@@H](C)CN1C(=O)c1ccccc1 [Compound 118, 2-(4-((2S,5R)-4-benzoyl-2,5-dimethylpiperazin-1-yl)-5-(pyridin-2-yl)-7H-pyrrolo[2,3-d]pyrimidin-7-yl)isonicotinonitrile]
5 | – | – | 100 to 500 | Cc1cn(-c2cc(C#N)ccn2)c2ncnc(N3C[C@@H](C)N(C(=O)c4ccccc4)C[C@@H]3C)c12 [Compound 104, 2-(4-((2S,5R)-4-benzoyl-2,5-dimethylpiperazin-1-yl)-5-methyl-7H-pyrrolo[2,3-d]pyrimidin-7-yl)isonicotinonitrile]
6 | 100 to 500 | 100 to 500 | 100 to 500 | C[C@@H]1CN(c2ncnc3c2c(N2CCC2)cn3-c2cc(C#N)ccn2)[C@@H](C)CN1C(=O)c1cccc(F)c1 [Compound 114, 2-(5-(azetidin-1-yl)-4-((2S,5R)-4-(3-fluorobenzoyl)-2,5-dimethylpiperazin-1-yl)-7H-pyrrolo[2,3-d]pyrimidin-7-yl)isonicotinonitrile]
7 | 100 to 500 | 500 to 2000 | 100 to 500 | Cc1ccccc1C(=O)N1C[C@H](C)N(c2ncnc3c2c(N2CCC2)cn3-c2cc(C#N)ccn2)C[C@H]1C [Compound 112, 2-(5-(azetidin-1-yl)-4-((2S,5R)-2,5-dimethyl-4-(2-methylbenzoyl)piperazin-1-yl)-7H-pyrrolo[2,3-d]pyrimidin-7-yl)isonicotinonitrile]
8 | – | – | 500 to 2000 | C[C@H]1CN(C(=O)c2ccccc2)CCN1c1ncnc2c1c(C(F)(F)F)cn2-c1cc(C#N)ccn1 [Compound 117, (S)-2-(4-(4-benzoyl-2-methylpiperazin-1-yl)-5-(trifluoromethyl)-7H-pyrrolo[2,3-d]pyrimidin-7-yl)isonicotinonitrile]
9 | – | – | < 100 | C[C@@H]1CN(c2ncnc3c2c(C(F)(F)F)cn3-c2cc(C#N)ccn2)CCN1C(=O)c1ccccc1 [Compound 115, (R)-2-(4-(4-benzoyl-3-methylpiperazin-1-yl)-5-(trifluoromethyl)-7H-pyrrolo[2,3-d]pyrimidin-7-yl)isonicotinonitrile]
10 | < 100 | > 2000 | 500 to 2000 | C[C@@H]1CN(c2ncnc3c2c(C2CC2)cn3-c2cccc(F)c2)[C@@H](C)CN1C(=O)c1ccccc1 [Compound 105, ((2R,5S)-4-(5-cyclopropyl-7-(3-fluorophenyl)-7H-pyrrolo[2,3-d]pyrimidin-4-yl)-2,5-dimethylpiperazin-1-yl)(phenyl)methanone]
11 | < 100 | 500 to 2000 | 500 to 2000 | C[C@@H]1CN(c2ncnc3c2c(N2CCC2)cn3-c2cccc(F)c2)[C@@H](C)CN1C(=O)c1ccccc1 [Compound 108, ((2R,5S)-4-(5-(azetidin-1-yl)-7-(3-fluorophenyl)-7H-pyrrolo[2,3-d]pyrimidin-4-yl)-2,5-dimethylpiperazin-1-yl)(phenyl)methanone]
12 | < 100 | > 2000 | 500 to 2000 | C[C@@H]1CN(c2ncnc3c2c(C(F)(F)F)cn3-c2cccc(F)c2)[C@@H](C)CN1C(=O)c1ccccc1 [Compound 106, ((2R,5S)-4-(7-(3-fluorophenyl)-5-(trifluoromethyl)-7H-pyrrolo[2,3-d]pyrimidin-4-yl)-2,5-dimethylpiperazin-1-yl)(phenyl)methanone]
13 | 100 to 500 | – | 500 to 2000 | C[C@@H]1CN(c2ncnc3c2c(C2CCC2)cn3-c2cccc(F)c2)[C@@H](C)CN1C(=O)c1ccccc1 [Compound 111, ((2R,5S)-4-(5-cyclobutyl-7-(3-fluorophenyl)-7H-pyrrolo[2,3-d]pyrimidin-4-yl)-2,5-dimethylpiperazin-1-yl)(phenyl)methanone]
14 | < 100 | 100 to 500 | 100 to 500 | C[C@@H]1CN(c2ncnc3c2c(N2CCC2)cn3-c2cc(C#N)ccn2)[C@@H](C)CN1C(=O)c1ccccc1 [Compound 107, 2-(5-(azetidin-1-yl)-4-((2S,5R)-4-benzoyl-2,5-dimethylpiperazin-1-yl)-7H-pyrrolo[2,3-d]pyrimidin-7-yl)isonicotinonitrile]
15 | – | 500 to 2000 | < 100 | C[C@@H]1CN(c2ncnc3c2c(C(F)(F)F)cn3-c2cc(C#N)ccn2)[C@@H](C)CN1C(=O)c1ccccc1 [Compound 103, 2-(4-((2S,5R)-4-benzoyl-2,5-dimethylpiperazin-1-yl)-5-(trifluoromethyl)-7H-pyrrolo[2,3-d]pyrimidin-7-yl)isonicotinonitrile]
16 | < 100 | 100 to 500 | < 100 | C[C@@H]1CN(c2ncnc3c2c(-c2ccccc2F)cn3-c2cc(C#N)ccn2)[C@@H](C)CN1C(=O)c1ccccc1N(C)C [Compound 121, 2-(4-((2S,5R)-4-(2-(dimethylamino)benzoyl)-2,5-dimethylpiperazin-1-yl)-5-(2-fluorophenyl)-7H-pyrrolo[2,3-d]pyrimidin-7-yl)isonicotinonitrile]
